Reference: ChEMBL document CHEMBL3228022, “Synthesis of 2,3,4,4a,5,9b-hexahydro-1H-pyrido[4,3-b]indole derivatives and their central nervous system activities” (1979)
The source made the active and inactive calls. No cut-off for these calls is given here.

Assays:
[1] = system: Mus musculus; assay: Neuroleptic activity in STD-ddy mouse assessed as inhibition of locomotion at 100 mg/kg, po measured for 3 mins; assay type: functional; conditions: 0.05 h
[2] = system: Mus musculus; assay: Neuroleptic activity in STD-ddy mouse assessed as inhibition of locomotion at 10 mg/kg, po measured for 3 mins; assay type: functional; conditions: 0.05 h
[3] = system: Mus musculus; assay: Neuroleptic activity in STD-ddy mouse assessed as muscle relaxation at 100 mg/kg, po after 20 mins; assay type: functional, organism-based; set-up: dose 100 mg/kg
[4] = system: Mus musculus; assay: Neuroleptic activity in STD-ddy mouse assessed as catalepsy at 100 mg/kg, po measured up to 30 secs; assay type: functional, organism-based; set-up: dose 100 mg/kg
[5] = system: Rattus norvegicus; assay: Neuroleptic activity in Wistar HLA rat assessed as inhibition of methamphetamine-induced stereotyped behavior at 1 mg/kg, ip administered 20 mins before methamphetamine challenge measured every 30 mins for 3 hrs followed by every 1 hr for further 3 hrs; assay type: functional; set-up: Activity: scale not given: the % may be the effect or the level left; conditions: route intraperitoneal
[6] = system: Rattus norvegicus; assay: Neuroleptic activity in Wistar HLA rat assessed as inhibition of methamphetamine-induced stereotyped behavior at 2 mg/kg, ip administered 20 mins before methamphetamine challenge measured every 30 mins for 3 hrs followed by every 1 hr for further 3 hrs; assay type: functional; set-up: Activity: scale not given: the % may be the effect or the level left; conditions: route intraperitoneal
[7] = system: Rattus norvegicus; assay: Neuroleptic activity in Wistar HLA rat assessed as stimulation of methamphetamine-induced stereotyped behavior at 5 mg/kg, ip administered 20 mins before methamphetamine challenge measured every 30 mins for 3 hrs followed by every 1 hr for further 3 hrs; assay type: functional; conditions: route intraperitoneal
[8] = system: Rattus norvegicus; assay: Neuroleptic activity in Wistar HLA rat assessed as stimulation of methamphetamine-induced stereotyped behavior at 10 mg/kg, ip administered 20 mins before methamphetamine challenge measured every 30 mins for 3 hrs followed by every 1 hr for further 3 hrs; assay type: functional; conditions: route intraperitoneal
[9] = system: Mus musculus; assay: Neuroleptic activity in po dosed STD-ddy mouse assessed as inhibition of locomotion measured for 3 mins; assay type: functional; conditions: 0.05 h
[10] = system: Mus musculus; assay: Neuroleptic activity in po dosed STD-ddy mouse assessed as catalepsy measured up to 30 secs; assay type: functional
[11] = system: Mus musculus; assay: Neuroleptic activity in po dosed STD-ddy mouse assessed as inhibition of active avoidance; assay type: functional
[12] = system: Rattus norvegicus; assay: Neuroleptic activity in po dosed Wistar HLA rat assessed as inhibition of intracranial self-stimulation measured for 1 to 24 hrs; assay type: functional
[13] = system: Rattus norvegicus; assay: Neuroleptic activity in Wistar HLA rat assessed as inhibition of methamphetamine-induced stereotyped behavior at 0.1 mg/kg, ip administered 20 mins before methamphetamine challenge measured every 30 mins for 3 hrs followed by every 1 hr for further 3 hrs; assay type: functional; set-up: scale not given: the % may be the effect or the level left; conditions: route intraperitoneal
[14] = system: Rattus norvegicus; assay: Neuroleptic activity in Wistar HLA rat assessed as inhibition of methamphetamine-induced stereotyped behavior at 0.2 mg/kg, ip administered 20 mins before methamphetamine challenge measured every 30 mins for 3 hrs followed by every 1 hr for further 3 hrs; assay type: functional; set-up: scale not given: the % may be the effect or the level left; conditions: route intraperitoneal
[15] = system: Rattus norvegicus; assay: Neuroleptic activity in Wistar HLA rat assessed as inhibition of methamphetamine-induced stereotyped behavior at 0.5 mg/kg, ip administered 20 mins before methamphetamine challenge measured every 30 mins for 3 hrs followed by every 1 hr for further 3 hrs; assay type: functional; set-up: scale not given: the % may be the effect or the level left; conditions: route intraperitoneal
[16] = system: Rattus norvegicus; assay: Neuroleptic activity in Wistar HLA rat assessed as inhibition of methamphetamine-induced stereotyped behavior at 5 mg/kg, ip administered 20 mins before methamphetamine challenge measured every 30 mins for 3 hrs followed by every 1 hr for further 3 hrs; assay type: functional; set-up: Activity: scale not given: the % may be the effect or the level left; conditions: route intraperitoneal; for inhibition in vivo at 5 mg/kg: Rattus norvegicus, Wistar HLA, ip
[17] = system: Rattus norvegicus; assay: Neuroleptic activity in Wistar HLA rat assessed as inhibition of methamphetamine-induced stereotyped behavior at 10 mg/kg, ip administered 20 mins before methamphetamine challenge measured every 30 mins for 3 hrs followed by every 1 hr for further 3 hrs; assay type: functional; set-up: Activity: scale not given: the % may be the effect or the level left; conditions: route intraperitoneal; for inhibition in vivo at 10 mg/kg: Rattus norvegicus, Wistar HLA, ip
[18] = system: Mus musculus; assay: Neuroleptic activity in po dosed STD-ddy mouse assessed as inhibition of methamphetamine-induced stereotyped behavior administered 100 mins before methamphetamine challenge measured for 20 mins; assay type: functional
[19] = system: Rattus norvegicus; assay: Neuroleptic activity in sc dosed Wistar HLA rat assessed as inhibition of apomorphine-induced gnawing administered 1 hr before apomorphine challenge measured 5 to 20 mins; assay type: functional
[20] = system: Rattus norvegicus; assay: Neuroleptic activity in ip dosed Wistar HLA rat assessed as inhibition of intracranial self-stimulation measured for 1 to 24 hrs; assay type: functional
[21] = system: Rattus norvegicus; assay: Neuroleptic activity in Wistar HLA rat assessed as stimulation of methamphetamine-induced stereotyped behavior at 2 mg/kg, ip administered 20 mins before methamphetamine challenge measured every 30 mins for 3 hrs followed by every 1 hr for further 3 hrs; assay type: functional; conditions: route intraperitoneal
[22] = Rattus norvegicus, Wistar HLA, ip

SMILES	inhibition in vivo at 100 mg/kg [1] [%]	inhibition in vivo at 10 mg/kg [2] [%]	Activity [3]	Activity [4]	Activity [5] [%]	also measured
Cc1ccc2c(c1)[C@H]1CN(CCCC(c3ccc(F)cc3)c3ccc(F)cc3)CC[C@H]1N2 (relative stereo)	90.7	-73	inactive			
Cc1ccc2c(c1)[C@H]1CN(CCCC(=O)c3ccc(F)cc3)CC[C@H]1N2C.Cl (relative stereo)	95.8	55.8		Active	0	Activity [6]: 0%; Activity [7]: 50%; Activity [8]: 50%; ED50 [9]: 10.2 mg/kg; ED50 [10]: 40.3 mg/kg; ED50 [11]: 20.1 mg/kg; ED50 [12]: 30 mg/kg
O=C(CCCN1CCC(O)(c2ccc(Cl)cc2)CC1)c1ccc(F)cc1 [HALOPERIDOL]						inhibition in vivo at 1 mg/kg [5, 22]: > 75%; Activity [13]: 0%; Activity [14]: 25%; Activity [15]: >75%
CC(=O)CCN1CC[C@@H]2Nc3ccc(C)cc3[C@H]2C1 (relative stereo)	-15.5		inactive			
Cc1ccc2c(c1)[C@H]1CN(Cc3ccccc3)CC[C@@H]1N2 (relative stereo)	17.9		inactive			
CC(=O)N1c2ccc(C)cc2[C@H]2CN(CCCC(=O)c3ccc(F)cc3)CC[C@H]21 (relative stereo)	21.7		inactive	inactive		
CCN1CC[C@H]2Nc3ccc(C)cc3[C@H]2C1 (mixture of isomers)	54.7			inactive		
COc1ccc2c(c1)[C@H]1CN(CCCC(=O)c3ccc(F)cc3)CC[C@H]1N2.Cl (relative stereo)	96.7	61.7	Active		0	Activity [6]: 0%; Activity [16]: 0%; inhibition in vivo at 10 mg/kg [17]: 25%
CC(=O)CCN1CC[C@H]2Nc3ccc(C)cc3[C@H]2C1 (relative stereo)	38.8		inactive	inactive		
Fc1ccc2c(c1)[C@H]1CN(Cc3ccccc3)CC[C@@H]1N2 (relative stereo)	76.1		inactive	inactive		
Cc1ccc2c(c1)[C@H]1CN(CCCC(=O)c3ccc(F)cc3)CC[C@@H]1N2.Cl (relative stereo)	86.5				25	inhibition in vivo at 2 mg/kg [6, 22]: 50%; inhibition in vivo at 5 mg/kg [16]: > 75%; inhibition in vivo at 10 mg/kg [17]: > 75%; ED50 [9]: 9.73 mg/kg; ED50 [10]: 7.18 mg/kg; ED50 [11]: 9.73 mg/kg; ED50 [12]: 6.28 mg/kg
Cc1ccc2c(c1)[C@H]1CN(CCCN(C)C)CC[C@H]1N2 (relative stereo)	12.3		inactive	inactive		
Cl.O=C(CCCN1CC[C@@H]2Nc3ccc(F)cc3[C@H]2C1)c1ccc(F)cc1 (relative stereo)	92.2					ED50 [9]: 7.12 mg/kg; ED50 [10]: 8.08 mg/kg; ED50 [11]: 5.19 mg/kg; ED50 [12]: 4.54 mg/kg
CN(C)CCCN1c2ccccc2Sc2ccc(Cl)cc21 [CHLORPROMAZINE]	97.4	67.6	Active	Active		Activity [6]: 0%; Activity [16]: 50%; inhibition in vivo at 10 mg/kg [17]: > 75%; ED50 [18]: 13.3 mg/kg; ED50 [19]: 3.25 mg/kg; ED50 [9]: 7.42 mg/kg; ED50 [10]: 9.97 mg/kg; ED50 [11]: 5.59 mg/kg; ED50 [20]: 2.1 mg/kg
Cc1ccc2c(c1)[C@H]1CN(C)CC[C@H]1N2 (relative stereo) [STOBADINE]	37.6		inactive	inactive	0	Activity [21]: 25%; Activity [7]: 50%; Activity [8]: >75%; ED50 [18]: > 100 mg/kg; ED50 [19]: > 100 mg/kg; ED50 [9]: 150 mg/kg; ED50 [10]: > 150 mg/kg; ED50 [12]: > 100 mg/kg
Cc1ccc2c(c1)[C@H]1CN(CCCN3c4ccccc4Sc4cc(Cl)ccc43)CC[C@H]1N2.Cl (relative stereo)	96.9	56.6	inactive		0	Activity [6]: 0%; Activity [16]: 0%; Activity [17]: 0%
Cc1ccc2c(c1)[C@H]1CN(CCCC(=O)c3ccc(F)cc3)CC[C@@H]1N2C.O=C(O)/C=C\C(=O)O (relative stereo)	97.4			Active		ED50 [9]: 14.5 mg/kg; ED50 [10]: 55.9 mg/kg; ED50 [11]: 11.5 mg/kg; ED50 [12]: 8.44 mg/kg
Cl.O=C(CCCN1CC[C@H]2Nc3ccccc3[C@H]2C1)c1ccc(F)cc1 (relative stereo)	77.7	-6			0	Activity [6]: 0%; Activity [16]: 0%; inhibition in vivo at 10 mg/kg [17]: 25%
Cc1ccc2c(c1)[C@H]1CN(CCCC(=O)c3ccc(F)cc3)CC[C@H]1N2.Cl (relative stereo)	97.8	75.9	Active	Active	0	Activity [21]: 50%; Activity [7]: >75%; Activity [8]: 50%; ED50 [18]: 23.8 mg/kg; ED50 [19]: 16.5 mg/kg; ED50 [9]: 9.3 mg/kg; ED50 [10]: 15.3 mg/kg; ED50 [11]: 10 mg/kg
CN1c2ccc(F)cc2[C@H]2CN(CCCC(=O)c3ccc(F)cc3)CC[C@@H]21.O=C(O)/C=C\C(=O)O (relative stereo)	92.7					ED50 [9]: 12.8 mg/kg; ED50 [10]: 30.7 mg/kg; ED50 [11]: 4.58 mg/kg; ED50 [12]: 7.37 mg/kg
Cc1ccc2c(c1)[C@H]1CN(CCO)CC[C@@H]1N2 (relative stereo)	-5.6		inactive	inactive		
Cc1ccc2c(c1)[C@H]1CN(CCO)CC[C@H]1N2 (relative stereo)	30.7		inactive	inactive		
CCc1ccc2c(c1)[C@H]1CN(CCCC(=O)c3ccc(F)cc3)CC[C@H]1N2.Cl (relative stereo)	44		inactive	inactive		Activity [21]: 25%; Activity [7]: >75%; Activity [8]: >75%
CCN1c2ccc(C)cc2[C@H]2CN(CCCC(=O)c3ccc(F)cc3)CC[C@H]21.Cl (relative stereo)	92.9	34	Active	Active	0	Activity [6]: 0%; Activity [7]: >75%; Activity [8]: >75%
Cc1ccc2[nH]c3c(c2c1)CN(CCCC(=O)c1ccc(F)cc1)CC3.Cl					0	Activity [6]: 0%; Activity [16]: 0%; Activity [17]: 0%
Cc1ccc2c(c1)[C@H]1CN(C)CC[C@@H]1N2 (relative stereo)	79.7		inactive	inactive		
Cc1ccc2c(c1)[C@H]1CN(CC(=O)c3ccccc3)CC[C@H]1N2 (relative stereo)	29.8		inactive	inactive		
Cc1ccc2c(c1)[C@H]1CN(Cc3ccccc3)CC[C@H]1N2 (relative stereo)	35.3		inactive	inactive		
Cl.O=C(CCCN1CC[C@H]2Nc3ccc(F)cc3[C@H]2C1)c1ccc(F)cc1 (relative stereo)	91.2	47.2			0	Activity [6]: 0%; inhibition in vivo at 5 mg/kg [16]: 25%; inhibition in vivo at 10 mg/kg [17]: 50%
